Assay results from US12702131B2, “Synergistic agrochemical combination” (UPL LIMITED, priority 2020, dated 2026).

Assays:
Format in all cases: in vivo
Conditions in all cases: Glufosinate 3000 ml/ha, Triacontanol 500 ml/ha
CYNDH (Cynodon dactylon) = assay: Field trial, weed control in papaya orchard, CYNDH
Experimental: (§1) Field trials were carried out to test the synergy of the combination Glufosinate and Triacontanol. The field trials were carried out at Murari, A.P. The percentage efficacy was calculated after 15, 25 and 30 days of applications. The application was in the open space among the plants in a Papaya orchard and the results are recorded in the table below:—
(§2) TRTPO—Trianthema portulacastrum, COMBE—Commelina benghalensis, AMASP—Amaranthus spinosus, PTNHY—Parthenium hysterophorus, 1CRGG—Corchorus, DIMRE—Dinebra retroflexa, CYNDH—Cynodon dactylon, CYPRO—Cyperus rotundus, EPHHL—Euphorbia heterophylla

1CRGG (Corchorus) = assay: Field trial, weed control in papaya orchard, 1CRGG
Experimental: as §1, §2

[1] = tested on: DIMRE (Dinebra retroflexa); assay: Field trial, weed control in papaya orchard, DIMRE
Experimental: as §1, §2

[2] = tested on: TRTPO (Trianthema portulacastrum); assay: Field trial, weed control in papaya orchard, TRTPO
Experimental: as §1, §2

[3] = tested on: AMASP (Amaranthus spinosus); assay: Field trial, weed control in papaya orchard, AMASP
Experimental: as §1, §2

[4] = tested on: EPHHL (Euphorbia heterophylla); assay: Field trial, weed control in papaya orchard, EPHHL
Experimental: as §1, §2

[5] = tested on: COMBE (Commelina benghalensis); assay: Field trial, weed control in papaya orchard, COMBE
Experimental: as §1, §2

[6] = tested on: PANRP (Brachiaria reptans); assay: Field trial, weed control in papaya orchard, PANRP
Experimental: as §1

[7] = tested on: PTNHY (Parthenium hysterophorus); assay: Field trial, weed control in papaya orchard, PTNHY
Experimental: as §1, §2

CYPRO (Cyperus rotundus) = assay: Field trial, weed control in papaya orchard, CYPRO
Experimental: as §1, §2

CP(=O)(O)CCC(N)C(=O)O (centres unmarked) [Glufosinate]
% Weed control at 30 DAA CYNDH (CYNDH (Cynodon dactylon)): 54%
% Weed control at 30 DAA 1CRGG (1CRGG (Corchorus)): 69%
% Weed control at 30 DAA DIMRE [1]: 62%
% Weed control at 30 DAA TRTPO [2]: 81%
% Weed control at 30 DAA AMASP [3]: 73%
% Weed control at 30 DAA EPHHL [4]: 80%
% Weed control at 30 DAA COMBE [5]: 47%
% Weed control at 15 DAA ([6]; 15 DAA): 85%
% Weed control at 25 DAA ([6]; 25 DAA): 65%
% Weed control at 30 DAA PTNHY [7]: 96%
% Weed control at 30 DAA CYPRO (CYPRO (Cyperus rotundus)): 11%
